Test results reported in patent US11414395B2, “Heterocyclic compounds as modulators of mGluR7” (PRAGMA Therapeutics, priority 2017, dated 2022).

What follows are compounds tested against human mGluR7 (Homo sapiens (Human), UniProt Q14831) (assay: Inositol monophosphate production assay (IP1 assay), inhibition of L-AP4 response). Details: mean IC50 from at least two independent experiments; HEK293 cells transiently transfected with mGluR7, Gqtop and EAAC1; IP1 production vs EC80 L-AP4.
Format: cell-based
Excerpt: Inositol Monophosphate Production Assay (IP1 Assay):
HEK293 cells were transiently transfected with mGluR7 by electroporation and seeded in a poly-ornithine coated 96-well plate at the density of 150 000 cells/well. To allow the monitoring of receptor activity through measurements of inositol monophosphate (IP1) production, mGluR7 was transfected with a chimeric Gq/Gi protein (Gqtop). and was also co-transfected with EAAC1, a glutamate transporter, to avoid influence of extracellular glutamate. Cells were cultured in Dulbecco's Modified Eagle Medium (DMEM, Invitrogen, Cergy Pontoise, France), supplemented with 10% of Fetal Bovine Serum (FBS). Medium was changed by Glutamax™ (Invitrogen, Cergy Pontoise, France) to reduce extracellular glutamate concentration 3 hours before stimulation
IP1 production was determined using the IP-One HTRF kit (CisBio Bioassays), a competitive immunoassay using cryptate-labeled anti-IP1 antibody and d2-labeled IP, according to the manufacturer's recommendations. All points were realized in triplicate.
Data were analyzed with Prism 6 software (GraphPadSoftware, San Diego, Calif.). Typically, in each experiment, a four-parameter concentration-response curve equation was used to fit data and potency (IC50) is estimated as logarithms (log IC50). Data were calculated as % of the control mGluR7 agonist L-AP4 response, defined as the response that is generated upon addition of an EC80-equivalent concentration of L-AP4.
The Table 2 below represents the mean IC50 obtained from at least two independent experiments.

Sequence of human mGluR7 (Q14831 35-915): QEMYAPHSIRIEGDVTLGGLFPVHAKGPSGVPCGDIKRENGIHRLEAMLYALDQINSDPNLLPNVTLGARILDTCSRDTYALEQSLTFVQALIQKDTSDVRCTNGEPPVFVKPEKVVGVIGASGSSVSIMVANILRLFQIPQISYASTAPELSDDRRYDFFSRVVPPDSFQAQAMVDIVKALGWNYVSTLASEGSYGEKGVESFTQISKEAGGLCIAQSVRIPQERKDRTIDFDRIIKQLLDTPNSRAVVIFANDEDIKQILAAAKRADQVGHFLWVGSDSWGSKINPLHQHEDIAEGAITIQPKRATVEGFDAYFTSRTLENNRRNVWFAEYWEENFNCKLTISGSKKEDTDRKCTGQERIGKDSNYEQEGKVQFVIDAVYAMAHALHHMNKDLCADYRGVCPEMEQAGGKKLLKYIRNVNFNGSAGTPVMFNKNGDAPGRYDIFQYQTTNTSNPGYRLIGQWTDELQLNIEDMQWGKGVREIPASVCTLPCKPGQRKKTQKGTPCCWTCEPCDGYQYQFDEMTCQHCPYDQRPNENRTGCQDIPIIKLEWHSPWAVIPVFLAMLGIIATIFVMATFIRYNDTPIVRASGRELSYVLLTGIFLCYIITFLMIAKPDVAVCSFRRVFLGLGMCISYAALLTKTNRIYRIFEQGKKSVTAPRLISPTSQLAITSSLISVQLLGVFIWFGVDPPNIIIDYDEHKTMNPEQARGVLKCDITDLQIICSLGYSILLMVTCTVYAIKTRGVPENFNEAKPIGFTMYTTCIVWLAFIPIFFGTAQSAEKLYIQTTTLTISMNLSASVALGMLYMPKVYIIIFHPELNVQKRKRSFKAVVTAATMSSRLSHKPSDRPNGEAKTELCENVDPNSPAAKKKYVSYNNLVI

`Cc1ccc(C2CCc3c(cnn(-c4cccc(F)n4)c3=O)C2)c(C)c1` (stereo not shown) [Example 9, 6-(2,4-dimethylphenyl)-2-(6-fluoropyridin-2-yl)-5,6,7,8-tetrahydrophthalazin-1(2H)-one] was tested. Which IC50 did it give?
The IC50 was < 500 nM.

Which IC50 does the source give for `Cc1c(OC2CC2)cccc1C1CCc2c(cnn(-c3ncccn3)c2=O)C1` (single isomer, unassigned; (-)) [Example 128, (−)-6-(3-cyclopropoxy-2-methylphenyl)-2-(pyrimidin-2-yl)-5,6,7,8-tetrahydrophthalazin-1(2H)-one] here?
The IC50 was < 500 nM.

For `COc1cccc(C2CCc3c(cnn(-c4ncccn4)c3=O)C2)c1F` (stereo not shown) [Example 79, 6-(2-fluoro-3-methoxyphenyl)-2-(pyrimidin-2-yl)-5,6,7,8-tetrahydrophthalazin-1(2H)-one], which IC50 is on record?
Its IC50 is < 500 nM.

Which IC50 does the source give for `COCCCOc1cccc(C2CCc3c(cnn(-c4ncccn4)c3=O)C2)c1C` (stereo not shown) [Example 100, 6-(3-(3-methoxypropoxy)-2-methylphenyl)-2-(pyrimidin-2-yl)-5,6,7,8-tetrahydrophthalazin-1(2H)-one] here?
The IC50 was < 500 nM.

For `Cc1ccc(C2CCc3c(cnn(-c4ncccc4F)c3=O)C2)c(C)c1` (stereo not shown) [Example 12, 6-(2,4-dimethylphenyl)-2-(3-fluoropyridin-2-yl)-5,6,7,8-tetrahydrophthalazin-1(2H)-one], which IC50 is on record?
The IC50 was < 500 nM.

How did the IC50 turn out when `CC(=O)c1ccc(C2CCc3c(cnn(-c4ncccn4)c3=O)C2)c(C)c1` (stereo not shown) [Example 99, 6-(4-acetyl-2-methylphenyl)-2-(pyrimidin-2-yl)-5,6,7,8-tetrahydrophthalazin-1(2H)-one] was run?
Its IC50 is 1000 to 30000 nM.

With `Cc1ccc(C2CCc3c(cnn(-c4ccncc4)c3=O)C2)c(C)c1` (stereo not shown) [Example 50, 6-(2,4-dimethylphenyl)-2-(pyridin-4-yl)-5,6,7,8-tetrahydrophthalazin-1(2H)-one] as the compound, how does the IC50 read?
The IC50 was < 500 nM.

Which IC50 does the source give for `COc1cccnc1-n1ncc2c(c1=O)CCC(c1ccc(C)cc1C)C2` (stereo not shown) [Example 16, 6-(2,4-dimethylphenyl)-2-(3-methoxypyridin-2-yl)-5,6,7,8-tetrahydrophthalazin-1(2H)-one] here?
The IC50 was < 500 nM.

Which IC50 does the source give for `COc1ccc(F)c(C2CCc3c(cnn(-c4ncccn4)c3=O)C2)c1` (stereo not shown) [Example 74, 6-(2-fluoro-5-methoxyphenyl)-2-(pyrimidin-2-yl)-5,6,7,8-tetrahydrophthalazin-1(2H)-one] here?
Its IC50 is < 500 nM.

With `Cc1ccc(C2CCc3c(cnn(-c4ccc(C5CC5)cn4)c3=O)C2)c(C)c1` (stereo not shown) [Example 108, 2-(5-cyclopropylpyridin-2-yl)-6-(2,4-dimethylphenyl)-5,6,7,8-tetrahydrophthalazin-1(2H)-one] as the compound, how does the IC50 read?
Its IC50 is < 500 nM.

With `Cc1c(OC(C)C)cccc1C1CCc2c(cnn(-c3ncccn3)c2=O)C1` (stereo not shown) [Example 103, 6-(3-isopropoxy-2-methylphenyl)-2-(pyrimidin-2-yl)-5,6,7,8-tetrahydrophthalazin-1(2H)-one] as the compound, how does the IC50 read?
Its IC50 is 1000 to 30000 nM.

How did the IC50 turn out when `Cc1c(OC2CC2)cccc1C1CCc2c(cnn(-c3ncc(Br)cn3)c2=O)C1` (stereo not shown) [Example 126, 2-(5-bromopyrimidin-2-yl)-6-(3-cyclopropoxy-2-methylphenyl)-5,6,7,8-tetrahydrophthalazin-1(2H)-one] was run?
Its IC50 is < 500 nM.

`COc1cccc(C2CCc3c(cnn(-c4ncc(N5CCOCC5)cn4)c3=O)C2)c1C` (stereo not shown) [Example 112, 6-(3-methoxy-2-methylphenyl)-2-(5-morpholinopyrimidin-2-yl)-5,6,7,8-tetrahydrophthalazin-1(2H)-one] was tested. Which IC50 did it give?
Its IC50 is < 500 nM.

With `COc1cnc(-n2ncc3c(c2=O)CCC(c2cccc(OC)c2C)C3)cn1` (stereo not shown) [Example 44, 6-(3-methoxy-2-methylphenyl)-2-(5-methoxypyrazin-2-yl)-5,6,7,8-tetrahydrophthalazin-1(2H)-one] as the compound, how does the IC50 read?
The IC50 was < 500 nM.

`Cc1cccc(C2CCc3c(cnn(-c4ncccn4)c3=O)C2)c1C` (stereo not shown) [Example 82, 6-(2,3-dimethylphenyl)-2-(pyrimidin-2-yl)-5,6,7,8-tetrahydrophthalazin-1(2H)-one] was tested. Which IC50 did it give?
The IC50 was 500 to 1000 nM.

Which IC50 does the source give for `Cc1ccc(C2CCc3c(cnn(-c4cc(Cl)ccn4)c3=O)C2)c(C)c1` (stereo not shown) [Example 7, 2-(4-chloropyridin-2-yl)-6-(2,4-dimethylphenyl)-5,6,7,8-tetrahydrophthalazin-1(2H)-one] here?
The IC50 was < 500 nM.

How did the IC50 turn out when `O=c1c2c(cnn1-c1ncccn1)CC(c1cccc3c1ccn3C1CC1)CC2` (single isomer, unassigned; (-)) [Example 139, (−)-6-(1-cyclopropyl-1H-indol-4-yl)-2-(pyrimidin-2-yl)-5,6,7,8-tetrahydrophthalazin-1(2H)-one] was run?
Its IC50 is < 500 nM.

With `COc1ccc(C)c(C2CCc3c(cnn(-c4ncc(C5CC5)cn4)c3=O)C2)c1` (stereo not shown) [Example 107, 2-(5-cyclopropylpyrimidin-2-yl)-6-(5-methoxy-2-methylphenyl)-5,6,7,8-tetrahydrophthalazin-1(2H)-one] as the compound, how does the IC50 read?
Its IC50 is 500 to 1000 nM.

Which IC50 does the source give for `O=c1c2c(cnn1-c1ncccn1)CC(c1cccc(OC3CC3)c1Cl)CC2` (single isomer, unassigned; (+)) [Example 131, (+)-6-(2-chloro-3-cyclopropoxyphenyl)-2-(pyrimidin-2-yl)-5,6,7,8-tetrahydrophthalazin-1(2H)-one] here?
Its IC50 is < 500 nM.

How did the IC50 turn out when `Cc1ccc(C2CCc3c(cnn(-c4ncc(N5CCC5)cn4)c3=O)C2)c(C)c1` (stereo not shown) [Example 116, 2-(5-(azetidin-1-yl)pyrimidin-2-yl)-6-(2,4-dimethylphenyl)-5,6,7,8-tetrahydrophthalazin-1(2H)-one] was run?
Its IC50 is < 500 nM.

With `O=c1c2c(cnn1-c1ncccn1)CC(c1cccc3c1ccn3C1CC1)CC2` (single isomer, unassigned; (+)) [Example 138, (+)-6-(1-cyclopropyl-1H-indol-4-yl)-2-(pyrimidin-2-yl)-5,6,7,8-tetrahydrophthalazin-1(2H)-one] as the compound, how does the IC50 read?
The IC50 was 500 to 1000 nM.

With `O=c1c2c(cnn1-c1ccccn1)CC(c1cccc(C3CC3)c1)CC2` (stereo not shown) [Example 63, 6-(3-cyclopropylphenyl)-2-(pyridin-2-yl)-5,6,7,8-tetrahydrophthalazin-1(2H)-one] as the compound, how does the IC50 read?
Its IC50 is 500 to 1000 nM.

How did the IC50 turn out when `Cc1ccc(C2CCc3c(cnn(-c4ccc(F)cn4)c3=O)C2)c(C)c1` (stereo not shown) [Example 10, 6-(2,4-dimethylphenyl)-2-(5-fluoropyridin-2-yl)-5,6,7,8-tetrahydrophthalazin-1(2H)-one] was run?
Its IC50 is < 500 nM.

`COc1cccc(C2CCc3c(cnn(-c4ncc(C)cn4)c3=O)C2)c1Cl` (stereo not shown) [Example 94, 6-(2-chloro-3-methoxyphenyl)-2-(5-methylpyrimidin-2-yl)-5,6,7,8-tetrahydrophthalazin-1(2H)-one] was tested. Which IC50 did it give?
Its IC50 is < 500 nM.

`Cc1ccc(C2CCc3c(cnn(-c4nccc(C5CC5)n4)c3=O)C2)c(C)c1` (stereo not shown) [Example 37, 2-(4-cyclopropylpyrimidin-2-yl)-6-(2,4-dimethylphenyl)-5,6,7,8-tetrahydrophthalazin-1(2H)-one] was tested. Which IC50 did it give?
Its IC50 is < 500 nM.

How did the IC50 turn out when `COc1cccc(C2CCc3c(cnn(-c4ccc(CO)cn4)c3=O)C2)c1C` (stereo not shown) [Example 39, 2-(5-(hydroxymethyl)pyridin-2-yl)-6-(3-methoxy-2-methylphenyl)-5,6,7,8-tetrahydrophthalazin-1(2H)-one] was run?
Its IC50 is < 500 nM.

With `COc1cc(C)ccc1C1CCc2c(cnn(-c3ncccn3)c2=O)C1` (stereo not shown) [Example 70, 6-(2-methoxy-4-methylphenyl)-2-(pyrimidin-2-yl)-5,6,7,8-tetrahydrophthalazin-1(2H)-one] as the compound, how does the IC50 read?
The IC50 was 500 to 1000 nM.

How did the IC50 turn out when `COc1ccc(C)cc1C1CCc2c(cnn(-c3ncccn3)c2=O)C1` (stereo not shown) [Example 76, 6-(2-methoxy-5-methylphenyl)-2-(pyrimidin-2-yl)-5,6,7,8-tetrahydrophthalazin-1(2H)-one] was run?
Its IC50 is < 500 nM.
